How the values were obtained:
Progesterone receptor = target: T1, Progesterone receptor (Homo sapiens, UniProt P06401); assay: Activation of progesterone receptor in human T47D cells at 1 uM after 20 hrs by PRE-tagged luciferase reporter gene assay; type: cell-based
T1 sequence (P06401 whole entry): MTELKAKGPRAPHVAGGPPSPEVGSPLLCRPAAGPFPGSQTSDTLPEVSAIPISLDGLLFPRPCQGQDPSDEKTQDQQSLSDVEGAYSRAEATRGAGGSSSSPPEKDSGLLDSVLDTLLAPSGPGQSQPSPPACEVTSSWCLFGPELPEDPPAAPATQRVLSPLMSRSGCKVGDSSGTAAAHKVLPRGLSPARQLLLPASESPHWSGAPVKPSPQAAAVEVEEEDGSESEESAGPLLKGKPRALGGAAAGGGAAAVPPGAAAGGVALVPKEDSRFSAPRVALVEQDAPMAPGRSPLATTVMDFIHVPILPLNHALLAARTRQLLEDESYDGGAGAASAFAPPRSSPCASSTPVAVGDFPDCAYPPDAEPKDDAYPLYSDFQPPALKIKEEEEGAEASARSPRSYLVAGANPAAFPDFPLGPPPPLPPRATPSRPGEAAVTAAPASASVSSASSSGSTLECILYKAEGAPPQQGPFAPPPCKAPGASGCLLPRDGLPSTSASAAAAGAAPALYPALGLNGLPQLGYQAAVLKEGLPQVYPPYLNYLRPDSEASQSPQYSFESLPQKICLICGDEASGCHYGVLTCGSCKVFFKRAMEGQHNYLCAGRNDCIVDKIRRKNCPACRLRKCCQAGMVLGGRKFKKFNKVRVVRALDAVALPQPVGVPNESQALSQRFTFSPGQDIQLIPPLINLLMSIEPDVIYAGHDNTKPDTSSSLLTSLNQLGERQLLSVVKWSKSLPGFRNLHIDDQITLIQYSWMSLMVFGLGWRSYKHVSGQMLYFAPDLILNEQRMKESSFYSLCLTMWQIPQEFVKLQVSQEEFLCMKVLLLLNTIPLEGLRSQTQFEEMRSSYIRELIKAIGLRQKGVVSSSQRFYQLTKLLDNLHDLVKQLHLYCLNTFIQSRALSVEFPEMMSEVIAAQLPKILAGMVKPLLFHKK

[1] = target: T2, Progesterone receptor (Homo sapiens) (UniProt P06401); assay: Activation of progesterone receptor in human T47D cells after 20 hrs by PRE-tagged luciferase reporter gene assay relative to control; type: cell-based
T2 sequence (whole entry): T1 sequence (P06401 whole entry)

SMILES	EC50 (Progesterone receptor)	Efficacy [1] [%]
CC1(C)[C@@H](O)CC[C@]2(C)[C@@]3(C)c4[nH]c5ccccc5c4C[C@@H]3CC[C@@]12O	Not Active	
CC1(C)C(=O)C=C[C@]2(C)[C@@]3(C)c4[nH]c5ccccc5c4C[C@@H]3CC[C@@]12O		< 1
CO[C@H]1[C@H](O)[C@@H](O)[C@H](Oc2ccc3c4c([nH]c3c2)[C@@]2(C)[C@@H](CC[C@H]3C(C)(C)C(=O)C=C[C@@]32C)C4)O[C@@H]1CO		< 1
